As a reminder, the inhibition is the relative decrease from the control value, in per cent. Broadly, the Kd is the free concentration of one partner at which half of the binding sites on the other are occupied at equilibrium, for simple one-to-one binding.

Calls of active or inactive are those of the source. The rule behind the calls is not given here.

The target in data set [1] is Human immunodeficiency virus type 1 integrase (Human immunodeficiency virus 1) (UniProt Q7ZJM1). Briefly: Inhibition of integration activity of histidine-tagged HIV1 full length integrase at 76 uM.
Sequence of Human immunodeficiency virus type 1 integrase (Human immunodeficiency virus 1) (Q7ZJM1 as listed by the source): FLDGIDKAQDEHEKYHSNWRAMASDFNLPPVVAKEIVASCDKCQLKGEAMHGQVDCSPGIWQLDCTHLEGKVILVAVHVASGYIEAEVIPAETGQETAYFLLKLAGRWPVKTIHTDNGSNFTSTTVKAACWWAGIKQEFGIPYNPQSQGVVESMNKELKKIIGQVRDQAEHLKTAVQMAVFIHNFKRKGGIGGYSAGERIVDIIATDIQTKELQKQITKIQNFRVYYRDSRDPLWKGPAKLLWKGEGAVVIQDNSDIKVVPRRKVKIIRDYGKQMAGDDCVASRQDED
For data set [2], the system named is Human immunodeficiency virus 1. Kind of data set: Antiviral activity against HIV1 infected in human TZM-bl cells assessed as inhibition of viral replication treated 2 hrs before viral infection. Type of data set: functional, organism-based.
The target in data set [3] is Human immunodeficiency virus type 1 integrase (Human immunodeficiency virus 1) (UniProt Q7ZJM1). Briefly: Binding affinity to HIV1 integrase catalytic core domain (118-132) by ELISA. (In an ELISA, binding on a coated surface is turned into a signal by an enzyme label.)
The test system of data set [4] is Human immunodeficiency virus 1. Briefly: Antiviral activity against HIV1 infected in human SupT1 cells assessed as change in total amount of viral DNA at 0.5 to 62.5 uM treated 2 hrs before viral infection measured after 24 hrs by real time PCR analysis. It counts as functional, organism-based. Conditions: SUP-T1. (In qPCR the cycle at which signal appears reflects the starting amount.)

Data set [5] has as its target Human immunodeficiency virus type 1 integrase (Human immunodeficiency virus 1) (UniProt Q7ZJM1). Kind of data set: Inhibition of viral DNA binding to dimeric histidine-tagged HIV1 full length integrase treated for 20 mins before addition of fluorescein-labeled viral LTR DNA by fluorescence anisotropy. Background: Fluorescence polarisation rises when a labelled molecule tumbles more slowly, as on binding a larger partner.

Data set [6] has as its target T1, Human immunodeficiency virus type 1 integrase (Human immunodeficiency virus 1, UniProt Q7ZJM1). Kind of data set: Binding affinity to histidine-tagged HIV1 full length integrase by fluorescence anisotropy.
The target in data set [7] is Human immunodeficiency virus type 1 integrase (Human immunodeficiency virus 1) (UniProt Q7ZJM1). Kind of data set: Inhibition of histidine-tagged HIV1 full length integrase assessed as inhibition of viral DNA integration into human SupT1 cellular genome at 62.5 uM treated 2 hrs before viral infection measured after 24 hrs by real time PCR analysis. Type of data set: cell-based.

Data set [8] deals with Human immunodeficiency virus 1. Briefly: Antiviral activity against HIV1 infected in human TZM-bl cells assessed as inhibition of viral replication at 62.5 uM treated 2 hrs before viral infection measured after 2 days by MAGI assay. It counts as functional. Conditions: Human immunodeficiency virus 1, TZM-bl.
For data set [9], the target named is Human immunodeficiency virus type 1 integrase (Human immunodeficiency virus 1) (UniProt Q7ZJM1). Kind of data set: Binding affinity to dimeric histidine-tagged HIV1 full length integrase by analytical gel filtration.
Data set [10] shares this target. Kind of data set: Ratio of compound to IN1 activity for inhibition of viral DNA binding to histidine-tagged HIV1 full length integrase.
Data set [11] in a line: Cellular uptake in nucleus of human HeLa cells at 10 uM after 2 hrs by confocal microscopy. Type of data set: ADME, cell-based.
Data set [12] is described as follows: Cellular uptake in cytoplasm of human HeLa cells at 10 uM after 2 hrs by confocal microscopy. Type of data set: ADME, cell-based.
For data set [13], the target named is Human immunodeficiency virus type 1 integrase (Human immunodeficiency virus 1) (UniProt Q7ZJM1). Briefly: Binding affinity to HIV1 integrase catalytic core domain (94-112) by ELISA.
Data set [14] has the same target. Kind of data set: Inhibition of integration activity of histidine-tagged HIV1 full length integrase at enzyme to peptide molar ratio of 1:50. The following applies: concentration not given here.
A short description of data set [15]: Solubility of the compound. Type of data set: physicochemical.
Data set [16] addresses Human immunodeficiency virus type 1 integrase (Human immunodeficiency virus 1) (UniProt Q7ZJM1). Kind of data set: Binding affinity to HIV1 integrase DNA binding domain (240-260) by ELISA.
For data set [17], the target named is T1, Human immunodeficiency virus type 1 integrase. Kind of data set: Binding affinity to tetrameric histidine-tagged HIV1 full length integrase by fluorescence anisotropy.
Data set [18] addresses Human immunodeficiency virus type 1 integrase (Human immunodeficiency virus 1) (UniProt Q7ZJM1). Kind of data set: Inhibition of viral DNA binding to tetrameric histidine-tagged HIV1 full length integrase treated for 20 mins before addition of fluorescein-labeled viral LTR DNA by fluorescence anisotropy.
The target is the same in data set [19]. Briefly: Binding affinity to tetrameric histidine-tagged HIV1 full length integrase by analytical gel filtration.
Data set [20] shares this target. Kind of data set: Binding affinity to HIV1 integrase catalytic core domain (70-84) by ELISA.

T1 sequence (Q7ZJM1 whole entry): as the sequence (Q7ZJM1 as listed by the source) above

Consider H-WQCLTLTHRG-OH, for which the inhibition in data set [1] was 73%; in data set [2], “Dose-dependent effect”; in data set [7], 64%. Moreover, the outcome in data set [3], in data set [9] and in [13] was Active. In data set [4], the result was inactive. In addition, the inhibition entry in data set [5] was “Active”. Moreover, in data set [6] (read-out: Kd), the Kd came to 1700 nM. For the same substance, in data set [8], the inhibition at 62.5 µM is 68%. Moreover, the Ratio in data set [10] was 2. For the same substance, the Drug uptake entry in [11] and in data set [12] was “Active” in each case.
Turning to H-WQSLTLTHRG-OH, the inhibition in [14] is 62%; in data set [2], “Dose-dependent effect”; in data set [7], 51%. Besides, in [4], the result was inactive. Besides, in data set [5], the inhibition entry was “Active”. In addition, in data set [6] (read-out: Kd), the Kd is 1200 nM. Besides, in [8], the inhibition at 62.5 µM was 60%. Besides, the Drug uptake entry in data set [11] and in data set [12] was “Active” each time.
Take H-WQCLTLTHRGFVLLTITVLR-OH: the inhibition was 77% in data set [1], “Dose-dependent effect” in data set [2] and 63% in data set [7]. The outcome in data set [3], in data set [16], in data set [19], in data set [20] and in data set [13] was Active. For the same substance, the outcome in data set [4] was inactive. The solubility result in [15] is on record as “Soluble”. Also, the inhibition at 62.5 µM in [8] amounted to 70%. In addition, the Kd in [17] came out at 8700 nM. In addition, the inhibition entry in data set [18] is “Active”.
In the case of H-WFVLLTITVLR-OH [WFVLLTITVLR], the inhibition in data set [14] was 24%; in [2] it was “Dose-dependent effect”; in [7], 23%. For the same substance, the outcome in [3], in data set [16] and in data set [9] was Active. In addition, the outcome in data set [4] was inactive. In addition, in data set [5], the inhibition entry is “Active”. Besides, the Kd in [6] (read-out: Kd) was 1800 nM. The inhibition at 62.5 µM in data set [8] stood at 29%. The Ratio in data set [10] amounted to 2. Further, the Drug uptake entry in data set [11] and in data set [12] was “Active” in each case.
On to H-WITVLR-OH, for which, in data set [2], the inhibition entry is “Dose-dependent effect”. Moreover, the inhibition entry in [5] was “Active”. Also, the Kd result in data set [6] is on record as “Not Active”.
